Test system: K12877-001-R-J1-PDC complex spheroid viability
Assay: Anticancer human tumor K12877-001-R-J1-PDC patient-derived lung adenocarcinoma cell line growth inhibition [RAS]
Details: for IC50: curve of first compound; for viability, T/C: stronger effect = lower value; active = viability on the fitted dose curve at most 10% of control; inactive = the rest
How it was run: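 Multi-cell-type spheroids: tumor cells plus HUVEC endothelial cells and mesenchymal stem cells. RAS-pathway inhibitors were combined with targeted agents, each dosed in half-log steps down from clinical Cmax, or from 10 microM when Cmax was unknown.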

[1] = second compound 0.000949 µM, first compound 0.0316 µM
[2] = second compound 0.000949 µM, first compound 0.1 µM
[3] = second compound 0.000949 µM, first compound 0.316 µM
[4] = second compound 0.000949 µM, first compound 1 µM
[5] = second compound 0.003 µM, first compound 0.0316 µM
[6] = second compound 0.003 µM, first compound 0.1 µM
[7] = second compound 0.003 µM, first compound 0.316 µM
[8] = second compound 0.003 µM, first compound 1 µM
[9] = second compound 0.00949 µM, first compound 0.0316 µM
[10] = second compound 0.00949 µM, first compound 0.1 µM
[11] = second compound 0.00949 µM, first compound 0.316 µM
[12] = second compound 0.00949 µM, first compound 1 µM
[13] = second compound 0.03 µM, first compound 0.0316 µM
[14] = second compound 0.03 µM, first compound 0.1 µM
[15] = second compound 0.03 µM, first compound 0.316 µM
[16] = second compound 0.03 µM, first compound 1 µM
[17] = second compound 0.0949 µM, first compound 0.0316 µM
[18] = second compound 0.0949 µM, first compound 0.1 µM
[19] = second compound 0.0949 µM, first compound 0.316 µM
[20] = second compound 0.0949 µM, first compound 1 µM
[21] = second compound 0.3 µM, first compound 0.0316 µM
[22] = second compound 0.3 µM, first compound 0.1 µM
[23] = second compound 0.3 µM, first compound 0.316 µM
[24] = second compound 0.3 µM, first compound 1 µM
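Note: spheroids exposed to agents for one week before readout.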
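Throughout, for viability, T/C: tumour cells co-cultured with HUVEC and mesenchymal stem cells in spheroids.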

CC(=O)OC12COC1CC(O)C1(C)C(=O)C(O)C3=C(C)C(OC(=O)C(O)C(NC(=O)OC(C)(C)C)c4ccccc4)CC(O)(C(OC(=O)c4ccccc4)C21)C3(C)C (centres undefined) + CCn1c(-c2cc(N3CCN(C)CC3)cnc2C(C)OC)c2c3cc(ccc31)-c1csc(n1)CC(NC(=O)C1CC1C)C(=O)N1CCCC(N1)C(=O)OCC(C)(C)C2
< 31.6 nM: IC50 (second compound 0.000949 µM) | IC50 (second compound 0.003 µM) | IC50 (second compound 0.00949 µM) | IC50 (second compound 0.03 µM) | IC50 (second compound 0.0949 µM) | IC50 (second compound 0.3 µM)
active: viability, T/C [1] 7.37% | viability, T/C [2] 5.79% | viability, T/C [3] 4.69% | viability, T/C [4] 5.58% | viability, T/C (second compound 0.000949 µM, first compound 3.16 µM) 7.53% | viability, T/C (second compound 0.000949 µM, first compound 10 µM) 12.1% | viability, T/C [5] 5.77% | viability, T/C [6] 4.36% | viability, T/C [7] 3.51% | viability, T/C [8] 4.48% | viability, T/C (second compound 0.003 µM, first compound 3.16 µM) 5.26% | viability, T/C (second compound 0.003 µM, first compound 10 µM) 14% | viability, T/C [9] 5.17% | viability, T/C [10] 4.24% | viability, T/C [11] 3.37% | viability, T/C [12] 3.68% | viability, T/C (second compound 0.00949 µM, first compound 3.16 µM) 4.57% | viability, T/C (second compound 0.00949 µM, first compound 10 µM) 12.9% | viability, T/C [13] 4.63% | viability, T/C [14] 2.99% | viability, T/C [15] 3.02% | viability, T/C [16] 3.05% | viability, T/C (second compound 0.03 µM, first compound 3.16 µM) 4.55% | viability, T/C (second compound 0.03 µM, first compound 10 µM) 10.7% | viability, T/C [17] 4.19% | viability, T/C [18] 2.73% | viability, T/C [19] 2.45% | viability, T/C [20] 2.46% | viability, T/C (second compound 0.0949 µM, first compound 3.16 µM) 3.56% | viability, T/C (second compound 0.0949 µM, first compound 10 µM) 9.41% | viability, T/C [21] 3.57% | viability, T/C [22] 2.99% | viability, T/C [23] 2.53% | viability, T/C [24] 2.8% | viability, T/C (second compound 0.3 µM, first compound 3.16 µM) 4.22% | viability, T/C (second compound 0.3 µM, first compound 10 µM) 9.04%

Nc1ccn(C2OC(CO)C(O)C2(F)F)c(=O)n1 (centres undefined) + CCn1c(-c2cc(N3CCN(C)CC3)cnc2C(C)OC)c2c3cc(ccc31)-c1csc(n1)CC(NC(=O)C1CC1C)C(=O)N1CCCC(N1)C(=O)OCC(C)(C)C2
11.6 nM: IC50 (second compound 0.00949 µM)
17.4 nM: IC50 (second compound 0.3 µM)
inactive: viability, T/C (second compound 0.000949 µM, first compound 0.00316 µM) 76.3% | viability, T/C (second compound 0.000949 µM, first compound 0.01 µM) 66.7% | viability, T/C (second compound 0.003 µM, first compound 0.00316 µM) 62.2% | viability, T/C (second compound 0.003 µM, first compound 0.01 µM) 64% | viability, T/C [5] 10.9% | viability, T/C (second compound 0.00949 µM, first compound 0.00316 µM) 59.7% | viability, T/C (second compound 0.00949 µM, first compound 0.01 µM) 55.8% | viability, T/C (second compound 0.03 µM, first compound 0.00316 µM) 93.2% | viability, T/C (second compound 0.03 µM, first compound 0.01 µM) 86.8% | viability, T/C [13] 10.9% | viability, T/C (second compound 0.0949 µM, first compound 0.00316 µM) 103% | viability, T/C (second compound 0.0949 µM, first compound 0.01 µM) 80.9% | viability, T/C [17] 12.4% | viability, T/C (second compound 0.3 µM, first compound 0.00316 µM) 84.6% | viability, T/C (second compound 0.3 µM, first compound 0.01 µM) 80.6% | viability, T/C [21] 17%
17.5 nM: IC50 (second compound 0.03 µM)
13.4 nM: IC50 (second compound 0.003 µM)
16.8 nM: IC50 (second compound 0.0949 µM)
13.9 nM: IC50 (second compound 0.000949 µM)
active: viability, T/C [1] 8.22% | viability, T/C [2] 4.35% | viability, T/C [3] 4.92% | viability, T/C [4] 5.37% | viability, T/C [6] 4.55% | viability, T/C [7] 4.11% | viability, T/C [8] 4.17% | viability, T/C [9] 9.86% | viability, T/C [10] 3.95% | viability, T/C [11] 4.84% | viability, T/C [12] 4.74% | viability, T/C [14] 4.44% | viability, T/C [15] 4.77% | viability, T/C [16] 3.54% | viability, T/C [18] 3.68% | viability, T/C [19] 3.46% | viability, T/C [20] 4.36% | viability, T/C [22] 2.67% | viability, T/C [23] 3.61% | viability, T/C [24] 2.74%

— PubChem BioAssay AID2060894 (Molecular Pharmacology Branch, DTP, NCI, 2025)
